Test results as given in ChEMBL document CHEMBL3244164, “Synthesis and analgesic activity of 1,3-dihydro-3-(substituted phenyl)imidazo[4,5-b]pyridin-2-ones and 3-(substituted phenyl)-1,2,3-triazolo[4,5-b]pyridines” (J Med Chem, 1978).

Key:
Assay type in all cases: functional
Rattus norvegicus [1] = assay: Analgesic activity in naloxone treated Sprague-Dawley rat hyperesthesia model inflamed foot assessed as mean pain reaction threshold at 5 mg/kg, po after 1 hr
Rattus norvegicus [2] = assay: Analgesic activity in Sprague-Dawley rat hyperesthesia model inflamed foot assessed as mean pain reaction threshold at 20 mg/kg, po after 1 hr
Rattus norvegicus [3] = assay: Analgesic activity in Sprague-Dawley rat assessed as increase in mean reaction time at 5 mg/kg, po after 3 hrs relative to control
Rattus norvegicus [4] = assay: Analgesic activity in Sprague-Dawley rat assessed as increase in mean reaction time at 10 mg/kg, po after 5 hrs relative to control
Rattus norvegicus [5] = assay: Analgesic activity in Sprague-Dawley rat hyperesthesia model normal foot assessed as mean pain reaction threshold at 20 mg/kg, po after 1 hr
Rattus norvegicus [6] = assay: Analgesic activity in naloxone treated Sprague-Dawley rat hyperesthesia model inflamed foot assessed as mean pain reaction threshold at 20 mg/kg, po after 1 hr
Rattus norvegicus [7] = assay: Antiinflammatory activity in Sprague-Dawley rat assessed as inhibition of carrageenan-induced paw edema at 30 mg/kg, po
Rattus norvegicus [8] = assay: Antiarthritic activity in Lewis rat assessed as inhibition of adjuvant-induced paw swelling at 50 mg/kg, po qd for 13 days measured on day 14
Rattus norvegicus [9] = assay: Analgesic activity in Sprague-Dawley rat assessed as increase in mean reaction time at 20 mg/kg, po after 5 hrs relative to control
Rattus norvegicus [10] = assay: Analgesic activity in Sprague-Dawley rat hyperesthesia model normal foot assessed as mean pain reaction threshold at 5 mg/kg, po after 1 hr
Rattus norvegicus [11] = assay: Analgesic activity in Sprague-Dawley rat hyperesthesia model inflamed foot assessed as mean pain reaction threshold at 5 mg/kg, po after 1 hr
Rattus norvegicus [12] = assay: Analgesic activity in Sprague-Dawley rat brewer's yeast treated foot assessed as response threshold at 8 mg/kg, po
Rattus norvegicus [13] = assay: Analgesic activity in naloxone treated Sprague-Dawley rat hyperesthesia model normal foot assessed as mean pain reaction threshold at 20 mg/kg, po after 1 hr
Rattus norvegicus [14] = assay: Analgesic activity in Sprague-Dawley rat hyperesthesia model inflamed foot assessed as mean pain reaction threshold at 10 mg/kg, po after 1 hr
Rattus norvegicus [15] = assay: Analgesic activity in Sprague-Dawley rat assessed as increase in mean reaction time at 20 mg/kg, po after 2 hrs relative to control
Rattus norvegicus [16] = assay: Analgesic activity in naloxone treated Sprague-Dawley rat hyperesthesia model normal foot assessed as mean pain reaction threshold at 10 mg/kg, po after 1 hr
Rattus norvegicus [17] = assay: Analgesic activity in Sprague-Dawley rat assessed as increase in mean reaction time at 20 mg/kg, po after 4 hrs relative to control
Rattus norvegicus [18] = assay: Analgesic activity in Sprague-Dawley rat assessed as increase in mean reaction time at 5 mg/kg, po after 5 hrs relative to control
Rattus norvegicus [19] = assay: Analgesic activity in Sprague-Dawley rat assessed as increase in mean reaction time at 5 mg/kg, po after 1 hr relative to control
Rattus norvegicus [20] = assay: Analgesic activity in Sprague-Dawley rat assessed as increase in mean reaction time at 20 mg/kg, po after 3 hrs relative to control
Rattus norvegicus [21] = assay: Analgesic activity in Sprague-Dawley rat assessed as increase in mean reaction time at 10 mg/kg, po after 1 hr relative to control
Rattus norvegicus [22] = assay: Analgesic activity in Sprague-Dawley rat assessed as increase in mean reaction time at 5 mg/kg, po after 4 hrs relative to control
Rattus norvegicus [23] = assay: Analgesic activity in Sprague-Dawley rat assessed as increase in mean reaction time at 5 mg/kg, po after 2 hrs relative to control
Rattus norvegicus [24] = assay: Analgesic activity in Sprague-Dawley rat assessed as increase in mean reaction time at 10 mg/kg, po after 2 hrs relative to control
Rattus norvegicus [25] = assay: Analgesic activity in Sprague-Dawley rat assessed as increase in mean reaction time at 10 mg/kg, po after 4 hrs relative to control
Rattus norvegicus [26] = assay: Analgesic activity in naloxone treated Sprague-Dawley rat hyperesthesia model inflamed foot assessed as mean pain reaction threshold at 10 mg/kg, po after 1 hr
Rattus norvegicus [27] = assay: Analgesic activity in Sprague-Dawley rat assessed as increase in mean reaction time at 10 mg/kg, po after 3 hrs relative to control
Rattus norvegicus [28] = assay: Analgesic activity in Sprague-Dawley rat assessed as increase in mean reaction time at 20 mg/kg, po after 1 hr relative to control
Rattus norvegicus [29] = assay: Analgesic activity in Sprague-Dawley rat hyperesthesia model normal foot assessed as mean pain reaction threshold at 10 mg/kg, po after 1 hr
Rattus norvegicus [30] = assay: Analgesic activity in naloxone treated Sprague-Dawley rat hyperesthesia model normal foot assessed as mean pain reaction threshold at 5 mg/kg, po after 1 hr
Rattus norvegicus [31] = assay: Analgesic activity in Sprague-Dawley rat normal foot assessed as response threshold at 8 to 16 mg/kg, po; details: dose mg/kg 8-16

## C=CCn1c(=O)n(-c2ccc3c(c2)OCO3)c2ncccc21
Rattus norvegicus [1]
  Activity: 33.4 mmHg
Rattus norvegicus [2]
  Activity: 74.4 mmHg
Rattus norvegicus [3]
  Time: 5.3 s
Rattus norvegicus [4]
  Time: 6.2 s
Rattus norvegicus [5]
  Activity: 88.5 mmHg
Rattus norvegicus [6]
  Activity: 66.6 mmHg
Rattus norvegicus [7]
  inhibition in vivo at 30 mg/kg: 42%
Rattus norvegicus [8]
  inhibition in vivo at 50 mg/kg: 78.2%
Rattus norvegicus [9]
  Time: 24.5 s
Rattus norvegicus [10]
  Activity: 40.5 mmHg
Rattus norvegicus [11]
  Activity: 28.8 mmHg
Rattus norvegicus [12]
  Activity: >34 mm
Rattus norvegicus [13]
  Activity: 79.3 mmHg
Rattus norvegicus [14]
  Activity: 44.4 mmHg
Rattus norvegicus [15]
  Time: 21.7 s
Rattus norvegicus [16]
  Activity: 71.1 mmHg
Rattus norvegicus [17]
  Time: 28.1 s
Rattus norvegicus [18]
  Time: 0 s
Rattus norvegicus [19]
  Time: 0.1 s
Rattus norvegicus [20]
  Time: 24.4 s
Rattus norvegicus [21]
  Time: 8.8 s
Rattus norvegicus [22]
  Time: 3.9 s
Rattus norvegicus [23]
  Time: 3.8 s
Rattus norvegicus [24]
  Time: 7.3 s
Rattus norvegicus [25]
  Time: 7.1 s
Rattus norvegicus [26]
  Activity: 47.8 mmHg
Rattus norvegicus [27]
  Time: 11.6 s
Rattus norvegicus [28]
  Time: 13.5 s
Rattus norvegicus [29]
  Activity: 52.3 mmHg
Rattus norvegicus [30]
  Activity: 38.4 mmHg
Rattus norvegicus [31]
  Activity: >50 mm
